The values that follow come from ChEMBL document CHEMBL3046599, “Synthesis and local anaesthetic activities of 2-aminothiazole/thiadiazole analogues of lidocaine” (Med Chem Res, 2012).

One may read the pIC50 as the IC50 on a negative log10 scale, so that one unit is a factor of ten.

The subject of assay [1] is Rattus norvegicus. Briefly: Local anaesthetic activity in Rattus norvegicus Wistar (rat) sciatic nerve block model assessed as time duration of loss of motor activity at 2 % solution measured until first sign of motor activity.
For another assay, the system named is Oryctolagus cuniculus. Put plainly: Corneal anaesthetic activity in New Zealand Oryctolagus cuniculus (rabbit) assessed as inhibition of Frey's horse hair-induced blink reflex at 2 % solution relative to lidocaine. In kind it is functional.
Assay [2] relates to Rattus norvegicus. Briefly: Local anaesthetic activity in Rattus norvegicus Wistar (rat) sciatic nerve block model assessed as time duration of loss of motor activity at 1 % solution measured over 45 min post injection. In kind it is functional.
A further assay has as its system Mus musculus. Put plainly: Local anaesthetic activity in sc dosed Mus musculus Swiss (mouse) tail assessed as loss of pain reflex measured with in 30 secs. The assay is classed as functional, organism-based.

pIC50: −log10 of the molar value.

Consider `CCN(CC)CC(=O)Nc1nc(-c2ccc(F)cc2Cl)cs1`, for which the Time in the assay with Rattus norvegicus [1] turned out to be 45 min; in the assay with Rattus norvegicus [2], 25 min. Besides, the “inhibition (INH)” value in the assay with Oryctolagus cuniculus is on record as 44.3%. Further, the pIC50 in the assay on Mus musculus was 1.64.
`CCN(CC)CC(=O)Nc1nnc(Cc2ccc(OC)cc2)s1`: the Time is given as 72 min in the assay with Rattus norvegicus [1] and 77 min with Rattus norvegicus [2]. In the assay on Oryctolagus cuniculus, the “inhibition (INH)” value turned out to be 54.2%. In addition, the pIC50 in the assay on Mus musculus is 1.44.
As to `CCN(CC)CC(=O)Nc1nnc(Cc2ccc(F)cc2)s1`, the Time was 210 min with Rattus norvegicus [1] and 90 min with Rattus norvegicus [2]. Also, the “inhibition (INH)” value in the assay on Oryctolagus cuniculus stood at 88.3%. In addition, the pIC50 in the assay on Mus musculus is 1.77.
`O=C(CN1CCCCC1)Nc1nc(-c2ccc(F)cc2Cl)cs1`: the Time in the assay on Rattus norvegicus [1] is reported as 160 min; in the assay on Rattus norvegicus [2] it was 40 min. Further, the “inhibition (INH)” value with Oryctolagus cuniculus was 42.6%. The pIC50 in the assay with Mus musculus is 2.14.
Turning to `COc1ccc(Cc2nnc(NC(=O)CN3CCCCC3)s2)cc1`, the Time came to 160 min in the assay with Rattus norvegicus [1] and 35 min in the assay with Rattus norvegicus [2]. The “inhibition (INH)” value in the assay on Oryctolagus cuniculus was determined as 34.8%. For the same compound, in the assay on Mus musculus, the pIC50 is 1.62.
For `O=C(CN1CCCCC1)Nc1nnc(Cc2ccc(F)cc2)s1` the same measures were 180 min, 40 min, 92.6% and 2.18.
`O=C(CN1CCOCC1)Nc1nc(-c2ccc(F)cc2Cl)cs1`: the Time in the assay with Rattus norvegicus [1] stood at 150 min; with Rattus norvegicus [2] it was 75 min. In addition, the “inhibition (INH)” value in the assay on Oryctolagus cuniculus amounted to 25.6%. In the assay with Mus musculus, the pIC50 was 1.49.
Take `COc1ccc(Cc2nnc(NC(=O)CN3CCOCC3)s2)cc1`: the Time in the assay with Rattus norvegicus [1] was 63 min; with Rattus norvegicus [2], 117 min. The “inhibition (INH)” value with Oryctolagus cuniculus stood at 40.2%. Also, the pIC50 with Mus musculus is 1.33.
For `O=C(CN1CCOCC1)Nc1nnc(Cc2ccc(F)cc2)s1`, the Time was 50 min in the assay on Rattus norvegicus [1] and 25 min in the assay with Rattus norvegicus [2]. In addition, the “inhibition (INH)” value with Oryctolagus cuniculus came out at 72.1%. Also, the pIC50 in the assay with Mus musculus is 1.91.
`CCN(CC)CC(=O)Nc1c(C)cccc1C.Cl`: the Time was determined as 117 min in the assay on Rattus norvegicus [1] and 65 min in the assay with Rattus norvegicus [2]. Moreover, the pIC50 in the assay with Mus musculus was 2.04.
